Test results reported in article PMC7481357, “N-terminal Myristoylation Enhanced the Antimicrobial Activity of Antimicrobial Peptide PMAP-36PW” (Frontiers in Cellular and Infection Microbiology, 2020).
No end group written: not given here.

Experiments:
[1] = test system: L. monocytogenes CICC 21634; format: cell-based, Listeria monocytogenes; settings: for MICs of different classes of antibiotics: L. monocytogenes CICC 21634, * indicates resistant (CLSI, 2020); for MICs: CICC 21634, 18 h
Description: (§1) The MICs of Myr-36PW in vitro were measured through microdilution in accordance with the Clinical and Laboratory Standards Institute (CLSI, [2020]). The bacterial cells were cultured for 12 h at 37°C in the appropriate medium and then diluted to 1 × 10^6 CFU/mL. Equal volumes (100 μL) of bacterial cell suspension and two-fold serially diluted different concentrations peptides (0.0039–256 μg/mL) were added to each well of the sterile 96-well plate. The samples were incubated for 18 h at 37°C. After incubation, the MICs of the peptides were determined by evaluating the growth based on the OD600 of the cultures.

S. typhimurium SL 1344 = format: cell-based, Salmonella typhimurium; settings: for MICs of different classes of antibiotics: S. typhimurium SL 1344, * indicates resistant (CLSI, 2020); for MICs: SL 1344, 18 h
Description: as §1

S. aureus ATCC 25923 [2] = format: cell-based, Staphylococcus aureus; settings: for MICs of different classes of antibiotics: S. aureus ATCC 25923, * indicates resistant (CLSI, 2020); for MICs: ATCC 25923, 18 h
Description: as §1

P. aeruginosa GIM 1.551 [3] = format: cell-based, Pseudomonas aeruginosa; settings: for MICs of different classes of antibiotics: P. aeruginosa GIM 1.551, * indicates resistant (CLSI, 2020); for MICs: GIM 1.551, 18 h
Description: as §1

S. aureus ATCC 25923 [4] = format: cell-based, Staphylococcus aureus; settings: ATCC 25923, 1 h
Description: (§2) The effects of abiotic factors on the antibacterial activity of Myr-36PW were investigated by MIC assay (Xi et al., [2013]; Zhong et al., [2019]). S. aureus ATCC 25923 and P. aeruginosa GIM 1.551 overnight cultures were diluted to 1 × 10^6 CFU/mL, and the MICs of peptides in MHB with different concentration of physiological salts (150 mM NaCL, 2 mM CaCL2) were determined. And after the peptides incubated in 10% mice serum for 1 h at 37°C, MICs of peptides against S. aureus ATCC 25923 and P. aeruginosa GIM 1.551 were determined. The MICs in MHB in the absence of physiological salts and serum were used as the control group.
(§3) Salt and serum stability in vitro were indicated by MIC assay. The concentrations of NaCl and CaCl2 were physiological concentration. 10% mice serum was inactivated by heat treatment for 15 min at 60 ℃。The control group was measured in the absence of physiological salts or serum in MHB.

P. aeruginosa GIM 1.551 [5] = format: cell-based, Pseudomonas aeruginosa; settings: GIM 1.551, 1 h
Description: as §2, §3

| Compound | MICs of different classes of antibiotics [1] | MICs of different classes of antibiotics (S. typhimurium SL 1344) | MICs of different classes of antibiotics (S. aureus ATCC 25923 [2]) | MICs of different classes of antibiotics (P. aeruginosa GIM 1.551 [3]) | MICs [1] [µg/mL] | MICs, CaCl2 (S. aureus ATCC 25923 [4]) [µg/mL] | MICs, NaCl (S. aureus ATCC 25923 [4]) [µg/mL] | MICs, Serum (S. aureus ATCC 25923 [4]) [µg/mL] | MICs (S. typhimurium SL 1344) [µg/mL] | MICs, CaCl2 (P. aeruginosa GIM 1.551 [5]) [µg/mL] | MICs, Control (P. aeruginosa GIM 1.551 [5]) [µg/mL] | MICs, NaCl (P. aeruginosa GIM 1.551 [5]) [µg/mL] | MICs, Serum (P. aeruginosa GIM 1.551 [5]) [µg/mL] | MICs (S. aureus ATCC 25923 [2]) [µg/mL] | MICs (P. aeruginosa GIM 1.551 [3]) [µg/mL] |
| --- | --- | --- | --- | --- | --- | --- | --- | --- | --- | --- | --- | --- | --- | --- | --- |
| NCC[C@H](O)C(=O)N[C@@H]1C[C@H](N)[C@@H](O[C@H]2O[C@H](CN)[C@@H](O)[C@H](O)[C@H]2O)[C@H](O)[C@H]1O[C@H]1O[C@H](CO)[C@@H](O)[C@H](N)[C@H]1O [Amikacin] | 128* μg/mL | 32 µg/mL | 4 µg/mL | >128* μg/mL | – | – | – | – | – | – | – | – | – | – | – |
| CC[C@H]1OC(=O)[C@H](C)[C@@H](O[C@H]2C[C@@](C)(OC)[C@@H](O)[C@H](C)O2)[C@H](C)[C@@H](O[C@@H]2O[C@H](C)C[C@H](N(C)C)[C@H]2O)[C@](C)(O)C[C@@H](C)CN(C)[C@H](C)[C@@H](O)[C@]1(C)O [Azithromycin] | 64* μg/mL | >128* μg/mL | 64* μg/mL | 128* μg/mL | – | – | – | – | – | – | – | – | – | – | – |
| CNC(C)C1CCC(N)C(OC2C(N)CC(N)C(OC3OCC(C)(O)C(NC)C3O)C2O)O1 (stereo not drawn) [Gentamicin] | 32* μg/mL | 8 µg/mL | 4 µg/mL | 128* μg/mL | – | – | – | – | – | – | – | – | – | – | – |
| Colistin | 8 µg/mL | 2 µg/mL | 16* μg/mL | 4* μg/mL | – | – | – | – | – | – | – | – | – | – | – |
| GRFRRLRKKTRKRLKKIGKVLKWIPPIVGSIPLGCG [PMAP-36] | – | – | – | – | 4 | 0.0625 | 0.0625 | 0.0625 | 32 | 2 | 2 | 2 | 2 | 0.0156 | 1 |
| GRFRRLRKKTRKRLKKIGKVLKWIWWIVGSIPLGCG [PMAP-36PW] | – | – | – | – | 2 | – | – | – | 16 | 1 | 1 | 1 | 1 | 0.0078 | 0.5 |
| Polymyxin B | 8 µg/mL | 2 µg/mL | 16* μg/mL | 4* μg/mL | – | – | – | – | – | – | – | – | – | – | – |
